From ChEMBL document CHEMBL1157413, “Pyronane monoterpenoids from the fruit of Gardenia jasminoides” (J Nat Prod, 2008)

Biological target: T1, Tyrosinase (Agaricus bisporus, UniProt O42713)
T1 sequence (O42713 whole entry): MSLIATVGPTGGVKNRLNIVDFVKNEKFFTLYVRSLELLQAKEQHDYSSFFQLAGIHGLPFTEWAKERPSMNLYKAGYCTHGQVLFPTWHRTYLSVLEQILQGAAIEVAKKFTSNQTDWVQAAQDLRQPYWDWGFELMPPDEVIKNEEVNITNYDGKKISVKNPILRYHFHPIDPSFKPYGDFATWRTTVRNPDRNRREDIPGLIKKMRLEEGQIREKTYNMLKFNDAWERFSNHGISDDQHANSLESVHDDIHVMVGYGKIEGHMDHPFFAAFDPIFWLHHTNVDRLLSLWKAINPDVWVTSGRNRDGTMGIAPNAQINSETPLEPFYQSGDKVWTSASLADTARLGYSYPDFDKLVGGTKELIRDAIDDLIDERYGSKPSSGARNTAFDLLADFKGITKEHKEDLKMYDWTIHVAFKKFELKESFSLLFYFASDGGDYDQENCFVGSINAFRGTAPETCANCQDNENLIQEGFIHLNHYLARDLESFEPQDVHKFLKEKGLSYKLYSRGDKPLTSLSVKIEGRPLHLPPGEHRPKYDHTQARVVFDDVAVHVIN
Description: Inhibition of mushroom tyrosinase activity after 10 mins

- IC50: 2200 µM
Compound: CC1(C)CC(=O)C=C(CO)[C@H]1CO [JASMINODIOL]
